Activity calls are given as the source filed them. The calls are words filed in the database; no cut-off is given here.
Key:
[1] = tested on: Human immunodeficiency virus 1; test: Antiviral activity against wild type HIV-1 infected in human TZM-bl cells incubated for 48 hrs by steady glo reagent based […] luminometer analysis; format: functional, organism-based; settings: Human immunodeficiency virus 1, TZM-bl
[2] = tested on: Human immunodeficiency virus 1; test: Antiviral activity against lamivudine resistant HIV-1 harboring RT M184V mutant infected in human TZM-bl cells incubated for 48 hrs by steady glo reagent based […] luminometer analysis; format: functional, organism-based; settings: Human immunodeficiency virus 1, TZM-bl
[3] = Cytotoxicity against human MT4 cells assessed as reduction in cell viability incubated for 5 days by MTT assay; format: toxicity, cell-based; settings: time 5 day
[4] = tested on: Human immunodeficiency virus 1; test: Antiviral activity against multidrug resistant HIV-1 harboring RT M41L/T69SSG/T215Y mutant infected in human TZM-bl cells incubated for 48 hrs by steady glo reagent based […] luminometer analysis; format: functional, organism-based; settings: Human immunodeficiency virus 1, TZM-bl
[5] = Cytotoxicity against human TZM-bl cells assessed as reduction in cell viability incubated for 48 hrs by MTT assay; format: toxicity, cell-based
[6] = tested on: Human immunodeficiency virus 1; test: Antiviral activity against azidothymidine resistant HIV-1 harboring RT M41L/T215Y mutant infected in human TZM-bl cells incubated for 48 hrs by steady glo reagent based […] luminometer analysis; format: functional, organism-based; settings: Human immunodeficiency virus 1, TZM-bl
[7] = target: Human immunodeficiency virus type 1 reverse transcriptase (Human immunodeficiency virus 1) (UniProt Q72547); test: Substrate activity at HIV-1 reverse transcriptase assessed as formation of single elongation product at 50 to 400 uM incubated for 60 mins in presence of 14.4 ng/uL enzyme, FAM labeled primer DNA, template RNA, dNTPs by fluorescence based primer extension assay; settings: dose 50-400 µM
[8] = species on record: Homo sapiens; test: Substrate activity at Phi29 DNA polymerase (unknown origin) assessed as incorporation into DNA incubated for 60 mins in presence of FAM labeled primer DNA, template DNA, dNTPs by fluorescence based primer extension assay
[9] = target: Human immunodeficiency virus type 1 reverse transcriptase (Human immunodeficiency virus 1) (UniProt Q72547); test: Substrate activity at HIV-1 reverse transcriptase assessed as formation of single elongation product by measuring elongation efficiency at 400 uM incubated for 5 mins in presence of 14.4 ng/uL enzyme, FAM labeled 13-mer primer DNA, 20-mer template RNA, dNTPs by fluorescence based primer extension assay relative to control
[10] = target: Human immunodeficiency virus type 1 reverse transcriptase (Human immunodeficiency virus 1) (UniProt Q72547); test: Substrate activity at HIV-1 reverse transcriptase assessed as formation of single elongation product by measuring elongation efficiency at 400 uM incubated for 60 mins in presence of 3.6 ng/uL enzyme, FAM labeled 13-mer primer DNA, 20-mer template RNA, dNTPs by fluorescence based primer extension assay relative to control
[11] = target: Human immunodeficiency virus type 1 reverse transcriptase (Human immunodeficiency virus 1) (UniProt Q72547); test: Substrate activity at HIV-1 reverse transcriptase assessed as formation of multiple elongation products at 50 to 400 uM incubated for 60 mins in presence of 14.4 ng/uL enzyme, FAM labeled primer DNA, template RNA, dNTPs by fluorescence based primer extension assay; settings: dose 50-400 µM
[12] = target: Human immunodeficiency virus type 1 reverse transcriptase (Human immunodeficiency virus 1) (UniProt Q72547); test: Substrate activity at HIV-1 reverse transcriptase assessed as formation of single elongation product by measuring elongation efficiency at 100 uM incubated for 60 mins in presence of FAM labeled 13-mer primer DNA, 20-mer template RNA, dNTPs by fluorescence based primer extension assay relative to control
[13] = target: Human immunodeficiency virus type 1 reverse transcriptase (Human immunodeficiency virus 1) (UniProt Q72547); test: Substrate activity at HIV-1 reverse transcriptase assessed as formation of single elongation product at 400 uM in presence of 3.6 ng/uL enzyme, FAM labeled 13-mer primer DNA, 20-mer template RNA, dNTPs by fluorescence based primer extension assay; settings: time 0-60 min, TDE = time-dependent effect
[14] = target: Human immunodeficiency virus type 1 reverse transcriptase (Human immunodeficiency virus 1) (UniProt Q72547); test: Substrate activity at HIV-1 reverse transcriptase assessed as mismatch elongation mediated 20-mer product formation at 50 to 400 uM incubated for 60 mins in presence of 14.4 ng/uL enzyme, FAM labeled primer DNA, template RNA, dNTPs by fluorescence based primer extension assay; settings: dose 50-400 µM
[15] = target: Human immunodeficiency virus type 1 reverse transcriptase (Human immunodeficiency virus 1) (UniProt Q72547); test: Substrate activity at HIV-1 reverse transcriptase assessed as 14-mer product formation incubated for 60 mins in presence of 14.4 ng/uL enzyme, FAM labeled primer DNA, template RNA, dNTPs by fluorescence based primer extension assay; settings: dose 50-400 µM
[16] = species on record: Homo sapiens; test: Substrate activity at Taq DNA polymerase (unknown origin) assessed as incorporation into DNA incubated for 60 mins in presence of FAM labeled primer DNA, template DNA, dNTPs by fluorescence based primer extension assay
[17] = target: Human immunodeficiency virus type 1 reverse transcriptase (Human immunodeficiency virus 1) (UniProt Q72547); test: Substrate activity at HIV-1 reverse transcriptase assessed as formation of single elongation product by measuring elongation efficiency at 400 uM incubated for 60 mins in presence of 14.4 ng/uL enzyme, FAM labeled 13-mer primer DNA, 20-mer template RNA, dNTPs by fluorescence based primer extension assay relative to control
[18] = target: Human immunodeficiency virus type 1 reverse transcriptase (Human immunodeficiency virus 1) (UniProt Q72547); test: Substrate activity at HIV-1 reverse transcriptase assessed as formation of single elongation product at 100 uM incubated for 60 mins in presence of FAM labeled 13-mer primer DNA, 20-mer template RNA, dNTPs by fluorescence based primer extension assay
[19] = target: Human immunodeficiency virus type 1 reverse transcriptase (Human immunodeficiency virus 1) (UniProt Q72547); test: Substrate activity at HIV-1 reverse transcriptase assessed as mismatch elongation mediated 19-mer product formation at 50 to 400 uM incubated for 60 mins in presence of 14.4 ng/uL enzyme, FAM labeled primer DNA, template RNA, dNTPs by fluorescence based primer extension assay; settings: dose 50-400 µM
[20] = tested on: Avian myeloblastosis virus; test: Substrate activity at Avian myeloblastosis virus reverse transcriptase assessed as incorporation into DNA incubated for 60 mins in presence of FAM labeled primer DNA, template DNA, dNTPs by fluorescence based primer extension assay
[21] = target: Human immunodeficiency virus type 1 reverse transcriptase (Human immunodeficiency virus 1) (UniProt Q72547); test: Substrate activity at HIV-1 reverse transcriptase assessed as 15-mer product formation incubated for 60 mins in presence of 14.4 ng/uL enzyme, FAM labeled primer DNA, template RNA, dNTPs by fluorescence based primer extension assay; settings: dose 50-400 µM
[22] = target: Human immunodeficiency virus type 1 reverse transcriptase (Human immunodeficiency virus 1) (UniProt Q72547); test: Substrate activity at HIV-1 reverse transcriptase assessed as increase in multiple base elongation product at 100 uM in presence of FAM labeled 13-mer primer DNA, 20-mer template RNA, dNTPs by fluorescence based primer extension assay; settings: time 0-60 min, TDE = time-dependent effect

Compound	EC50 [1] [µM]	EC50 [2] [µM]	CC50 at 120 h [3] [µM]	EC50 [4] [µM]	CC50 at 48 h [5] [µM]	EC50 [6] [µM]	also measured
O=c1[nH]cnc2c1ncn2[C@H]1CC[C@@H](CO)O1 [DIDANOSINE]	4.2	7.1	> 100	25	> 100	4.6	–
C[Se][C@H]1[C@H](O)[C@@H](COP(=O)(N[C@@H](C)C(=O)OC(C)C)Oc2ccccc2)O[C@H]1n1cnc2c(N)ncnc21 (stereo not given in full)	3.7	6.8	> 100	3.8	> 100	7	–
C[Se][C@H]1[C@H](O)[C@@H](COP(=O)(N[C@@H](C)C(=O)OC(C)C)Oc2ccccc2)O[C@H]1n1cnc2c(N)nc(N)nc21 (stereo not given in full)	> 0.8	–	5.5	–	2.8	–	–
C[Se][C@H]1[C@H](O)[C@@H](COP(=O)(N[C@@H](C)C(=O)OC(C)C)Oc2ccccc2)O[C@H]1n1cnc2c(=O)[nH]c(N)nc21 (stereo not given in full)	> 20	–	51	–	63	–	–
C[Se][C@H]1[C@H](O)[C@@H](CO)O[C@H]1n1cc(C)c(=O)[nH]c1=O	–	–	0.72	–	0.25	–	–
C[Se][C@H]1[C@H](O)[C@@H](CO)O[C@H]1n1cnc2c(N)nc(N)nc21	> 100	> 100	> 100	> 100	> 100	> 100	–
CCCC(CC)OC(=O)[C@H](C)N[P@](=O)(OC[C@H]1O[C@@H](n2cnc3c(N)ncnc32)[C@@H]([Se]C)[C@@H]1O)Oc1ccccc1 (stereo not given in full)	2.6	4.4	> 100	–	> 100	5.5	–
C[Se][C@H]1[C@H](O)[C@@H](COP(=O)(N[C@@H](C)C(=O)OC(C)C)Oc2ccccc2)O[C@H]1n1cc(C)c(=O)[nH]c1=O (stereo not given in full)	–	–	0.007	–	0.006	–	–
C[Se][C@H]1[C@H](O)[C@@H](CO)O[C@H]1n1cnc2c(N)nc(F)nc21	> 20	> 20	12	> 20	29	> 20	–
C[Se][C@H]1[C@H](O)[C@@H](CO[P@@](=O)(N[C@@H](C)C(=O)OC(C)C)Oc2ccccc2)O[C@H]1n1cnc2c(N)nc(F)nc21	> 20	–	> 100	–	80	–	–
COc1nc(N)nc2c1ncn2[C@@H]1O[C@H](COP(=O)(N[C@@H](C)C(=O)OC(C)C)Oc2ccccc2)[C@@H](O)[C@@H]1[Se]C (stereo not given in full)	54	46	> 100	61	> 100	45	–
C[Se][C@H]1[C@H](O)[C@@H](COP(=O)(O)OP(=O)(O)OP(=O)(O)O)O[C@H]1n1cnc2c(N)ncnc21	–	–	–	–	–	–	Activity [7]: Active; Activity [8]: inactive; Activity [9]: 70%; Activity [10]: 77%; Activity [11]: Active; Activity [12]: 80%; Activity [13]: Tde; Activity [14]: Active; Activity [15]: Dose-Dependent Effect; Activity [16]: inactive; Activity [17]: 94%; Activity [18]: Active; Activity [19]: Active; Activity [20]: Active; Activity [21]: Dose-Dependent Effect
Nc1ncnc2c1ncn2[C@H]1C[C@H](O)[C@@H](COP(=O)(O)OP(=O)(O)OP(=O)(O)O)O1	–	–	–	–	–	–	Activity [22]: Tde
Cc1cn([C@H]2C[C@H](N=[N+]=[N-])[C@@H](CO)O2)c(=O)[nH]c1=O [ZIDOVUDINE]	0.03	0.022	51	13	> 100	0.09	–
C[Se][C@H]1[C@H](O)[C@@H](CO)O[C@H]1n1ccc(=O)[nH]c1=O	–	–	0.006	–	0.005	–	–
C[Se][C@H]1[C@H](O)[C@@H](CO)O[C@H]1n1cnc2c(=O)[nH]c(N)nc21	> 100	> 100	> 100	> 100	> 100	> 100	–
Nc1ccn([C@@H]2CS[C@H](CO)O2)c(=O)n1 [LAMIVUDINE]	0.52	> 100	> 100	9.8	> 100	0.85	–
C[Se][C@H]1[C@H](O)[C@@H](COP(=O)(N[C@@H](C)C(=O)OC(C)C)Oc2ccccc2)O[C@H]1n1ccc(=O)[nH]c1=O (stereo not given in full)	–	–	0.007	–	0.004	–	–
C[Se][C@H]1[C@H](O)[C@@H](CO)O[C@H]1n1cnc2c(N)ncnc21	> 100	> 100	> 100	> 100	> 100	> 100	–
Nc1ncnc2c1ncn2[C@H]1CC[C@@H](COP(=O)(O)OP(=O)(O)OP(=O)(O)O)O1	–	–	–	–	–	–	Activity [7]: Active
COc1nc(N)nc2c1ncn2[C@@H]1O[C@H](CO)[C@@H](O)[C@@H]1[Se]C	> 20	> 20	> 100	> 20	> 100	> 20	–
C[Se][C@H]1[C@H](O)[C@@H](CO[P@@](=O)(N[C@@H](C)C(=O)OC(C)C)Oc2ccccc2)O[C@H]1n1cnc2c(N)ncnc21	2.2	5.7	> 100	2.8	> 100	5.8	–
